# Experimental data from PMC4771985, “Angiotensin I Converting Enzyme Inhibitory Peptides Derived from Phycobiliproteins of Dulse Palmaria palmata” (Marine Drugs, 2016).
# Ends that are not written are not given here. Peptide text beside a SMILES is read from it.
# Target: T1, ACE from rabbit lung (Oryctolagus cuniculus, UniProt P12822)
# T1 construct: ACE from rabbit lung was purchased from Sigma Chemical Co; purchased Sigma Chemical Co. (St. Louis, MO, USA); host or cells: rabbit lung (tissue-derived)
# T1 sequence (P12822 34-1310): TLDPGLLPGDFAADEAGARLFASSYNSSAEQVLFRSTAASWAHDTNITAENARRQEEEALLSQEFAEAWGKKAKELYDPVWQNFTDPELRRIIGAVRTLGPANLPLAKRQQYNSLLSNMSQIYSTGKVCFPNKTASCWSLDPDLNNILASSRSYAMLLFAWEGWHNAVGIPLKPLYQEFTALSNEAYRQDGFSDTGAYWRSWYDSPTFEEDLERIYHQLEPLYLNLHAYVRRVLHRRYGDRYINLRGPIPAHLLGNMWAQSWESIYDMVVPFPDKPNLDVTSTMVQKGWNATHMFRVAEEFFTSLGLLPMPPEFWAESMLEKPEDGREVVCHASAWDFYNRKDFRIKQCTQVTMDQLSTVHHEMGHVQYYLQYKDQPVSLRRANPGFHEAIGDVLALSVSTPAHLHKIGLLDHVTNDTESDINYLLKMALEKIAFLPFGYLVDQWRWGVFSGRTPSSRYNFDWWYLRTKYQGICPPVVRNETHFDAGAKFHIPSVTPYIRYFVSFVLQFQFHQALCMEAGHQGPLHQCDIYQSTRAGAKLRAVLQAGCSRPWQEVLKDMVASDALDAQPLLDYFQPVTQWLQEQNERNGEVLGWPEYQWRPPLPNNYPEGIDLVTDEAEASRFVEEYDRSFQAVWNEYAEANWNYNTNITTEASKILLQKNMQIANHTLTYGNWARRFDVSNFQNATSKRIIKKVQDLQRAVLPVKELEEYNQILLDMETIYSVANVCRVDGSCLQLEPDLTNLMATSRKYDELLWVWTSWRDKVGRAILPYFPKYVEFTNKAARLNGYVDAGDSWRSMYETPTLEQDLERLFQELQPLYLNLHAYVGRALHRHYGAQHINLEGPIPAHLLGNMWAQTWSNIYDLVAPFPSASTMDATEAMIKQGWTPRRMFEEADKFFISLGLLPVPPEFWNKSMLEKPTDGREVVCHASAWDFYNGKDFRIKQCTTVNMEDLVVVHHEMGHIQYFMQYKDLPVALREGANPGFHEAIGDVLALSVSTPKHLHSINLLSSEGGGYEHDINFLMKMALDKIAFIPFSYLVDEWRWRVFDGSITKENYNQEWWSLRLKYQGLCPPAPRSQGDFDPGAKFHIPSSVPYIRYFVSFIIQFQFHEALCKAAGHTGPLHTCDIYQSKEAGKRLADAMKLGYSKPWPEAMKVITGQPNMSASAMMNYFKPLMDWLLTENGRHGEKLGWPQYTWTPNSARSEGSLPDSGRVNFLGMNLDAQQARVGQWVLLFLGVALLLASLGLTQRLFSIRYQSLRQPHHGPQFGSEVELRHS
# Test: ACE inhibitory assay (Hip-His-Leu)
# Format: biochemical
# Conditions: IC50 defined as absolute quantity of peptide to inhibit 50% of 1.0 U ACE; pre-incubated 37 °C 5 min; Hip-His-Leu 12.5 mM, 0.1 M sodium borate, 400 mM NaCl, pH 8.3, 37 °C, 1 h; hippuric acid absorbance at 228 nm; read-out: IC50 Value, ACE inhibitory activity of synthetic peptides
# Source text: ACE from rabbit lung was purchased from Sigma Chemical Co. (St. Louis, MO, USA). Hyppuryl-L-histidyl-L-leucine (Hip-His-Leu), thermolysin (EC 3.4.24.27) from Bacillus thermoproteolyticus, pepsin (EC 3.4.23.1) from porcine stomach, trypsin (EC 3.4.21.4) from bovine pancreas and chymotrypsin (EC 3.4.21.1) from bovine pancreas were purchased from Wako Pure Chemical (Osaka, Japan). Synthetic peptides (purity: 99.4%–99.8%) were purchased from Medical Biological Laboratories Co. (Nagoya, Japan). All other reagents were purchased from Wako Pure Chemical Industries (Osaka, Japan).
# ACE inhibitory assay was carried out according to the method of Cheng and Cushman with some modifications. Fifteen microliters of sample solution (5.0 mg/mL) were added to 30 μL of ACE (0.2 units/mL), and the mixture was pre-incubated at 37 °C for 5 min. Thirty microliters of Hip-His-Leu solution (12.5 mM in 0.1 M sodium borate buffer containing 400 mM NaCl at pH 8.3) were added to the mixture. After incubation at 37 °C for 1 h, the reaction was stopped by adding 75 μL of 1.0 M HCl. The released hippuric acid was extracted with 450 μL of ethyl acetate. Four hundred microliters of the upper layer were evaporated, and then the hippuric acid was dissolved in 1.5 mL of distilled water. The absorbance at 228 nm of the solution was measured by a spectrophotometer. The inhibition was calculated from the equation [1 − (As − Asb)/(Ac − Acb)] × 100, where Ac is the absorbance of the buffer, Acb is the absorbance when the stop solution was added to the buffer before the reaction, As is the absorbance of the sample, and Asb is the absorbance when the stop solution was added to the sample before the reaction. In this study, we defined the IC50 as an absolute quantity of peptide to inhibit 50% of 1.0 U ACE.
row,IC50,Molecule
1,6100 nM,CC(C)C[C@H](N)C(=O)N[C@@H](CC(=O)O)C(=O)N[C@@H](Cc1ccc(O)cc1)C(=O)O [LDY] (H-Leu-Asp-Tyr-OH)
2,44 nM,CC(C)C[C@H](N)C(=O)N[C@@H](CCCNC(=N)N)C(=O)N[C@@H](Cc1ccc(O)cc1)C(=O)O [LRY] (H-Leu-Arg-Tyr-OH)
3,140 nM,CC(C)[C@H](N)C(=O)N[C@@H](Cc1ccc(O)cc1)C(=O)N[C@@H](CCCNC(=N)N)C(=O)N[C@H](C(=O)O)[C@@H](C)O [VYRT] (H-VYRT-OH)
4,> 2800 nM,FEQDWAS [FEQDWAS]
